Test [1] has as its system S. aureus strain ATCC 13709 (methicillin-susceptible). Kind of test: Murine model for lethal bacteremic peritonitis. Type of test: in vivo, female Swiss-Webster mice. The arrangement: ED50: unit: mg/kg. The note with it: SC, 72 h; for responders at 0.3125 mg/kg / responders at 0.625 mg/kg / responders at 2.5 mg/kg / responders at 5 mg/kg: read-out: Survivors; for responders at 1.25 mg/kg: read-out: Survivors (converted); for ED50: two equal doses, IP challenge. A digest of the protocol:
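Female Swiss-Webster mice were challenged IP with an LD100 inoculum in 7% hog gastric mucin, then given test drug subcutaneously in twofold increments (0.01–512 mg/kg) as two equal doses at challenge and 2 h later, 10 mice per group. Survival was scored at 72 h; PD50 (total mg/kg) was derived by probit.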

The test system of test [2] is E. coli ATCC 25992. Kind of test: In vitro MIC, agar dilution. Type of test: cell-based. The conditions noted are these: for MIC: Escherichia coli, ATCC25992, read-out: minimum inhibitory concentration (MIC). The gist of the method: (§1)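 Spots of about 10^4 cfu of log-phase culture were applied, and plates were incubated 16-20 h at 35-36 °C. MIC was the lowest concentration inhibiting growth.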
A general note: In agar dilution, organisms are placed on agar that contains the substance at set levels.

In test [3] the test system is S. aureus PC1(Meth^S)(lac^+). Kind of test: In vitro MIC, agar dilution. Type of test: cell-based. The note with it: for MIC: Staphylococcus aureus, read-out: minimum inhibitory concentration (MIC). The gist of the method:
as §1

In test [4] the test system is E. faecium VanA(Van^R). Kind of test: In vitro MIC, agar dilution. The test is classed as cell-based. The conditions noted are these: for MIC: Enterococcus faecium, read-out: minimum inhibitory concentration (MIC). A digest of the protocol:
as §1

Test [5] has as its system E. faecium ATCC 35667. Kind of test: In vitro MIC, agar dilution. Type of test: cell-based. The note with it: for MIC: Enterococcus faecium, ATCC35667, read-out: minimum inhibitory concentration (MIC). The gist of the method:
as §1

Test [6] concerns P. aeruginosa ATCC 27853. Kind of test: In vitro MIC, agar dilution. The test is classed as cell-based. The note with it: for MIC: Pseudomonas aeruginosa, ATCC27853, read-out: minimum inhibitory concentration (MIC). The gist of the method:
as §1

The test system of test [7] is S. haemolyticus 05(Meth^R). Kind of test: In vitro MIC, agar dilution. The test is classed as cell-based. The conditions noted are these: for MIC: Staphylococcus haemolyticus, read-out: minimum inhibitory concentration (MIC). The gist of the method: as §1
The subject of test [8] is S. aureus ATCC 33593(Meth^R). Kind of test: In vitro MIC, agar dilution. Type of test: cell-based. The conditions noted are these: for MIC: Staphylococcus aureus, ATCC33593, read-out: minimum inhibitory concentration (MIC). The gist of the method: as §1
Test [9] deals with S. aureus ATCC 29213. Kind of test: In vitro MIC, agar dilution. Type of test: cell-based. The conditions noted are these: for MIC: Staphylococcus aureus, ATCC29213, read-out: minimum inhibitory concentration (MIC). A digest of the protocol:
as §1

Test [10] deals with S. aureus Spain #356(Meth^R). Kind of test: In vitro MIC, agar dilution. The test is classed as cell-based. The conditions noted are these: for MIC: Staphylococcus aureus, read-out: minimum inhibitory concentration (MIC). The gist of the method:
as §1

Test [11] deals with E. faecalis ATCC 29212. Kind of test: In vitro MIC, agar dilution. The test is classed as cell-based. The conditions noted are these: for MIC: Enterococcus faecalis, ATCC29212, read-out: minimum inhibitory concentration (MIC). The gist of the method: as §1
In test [12] the test system is E. faecalis VanB(Van^R). Kind of test: In vitro MIC, agar dilution. The test is classed as cell-based. The note with it: for MIC: Enterococcus faecalis, read-out: minimum inhibitory concentration (MIC). The gist of the method:
as §1

Test [13] concerns S. aureus ATCC 13709(Meth^S). Kind of test: In vitro MIC, agar dilution. Type of test: cell-based. The note with it: for MIC: Staphylococcus aureus, ATCC13709, S. aureus ATCC 13709(Meth^S), read-out: minimum inhibitory concentration (MIC). The gist of the method: as §1
Test [14] concerns S. aureus 76(Meth^R)(lac^+). Kind of test: In vitro MIC, agar dilution. The conditions noted are these: for MIC: Staphylococcus aureus, read-out: minimum inhibitory concentration (MIC). Type of test: cell-based. A digest of the protocol:
as §1

For test [15], the system named is E. faecium A491(Amp^R). Kind of test: In vitro MIC, agar dilution. Type of test: cell-based. The note with it: for MIC: Enterococcus faecium, read-out: minimum inhibitory concentration (MIC). The gist of the method:
as §1

In test [16] the test system is S. aureus Col(Meth^R)(lac^-). Kind of test: In vitro MIC, agar dilution. The test is classed as cell-based. The conditions noted are these: for MIC: Staphylococcus aureus, read-out: minimum inhibitory concentration (MIC). The gist of the method: (§2)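 Two-fold dilutions (128 to ≤0.25 μg/mL, in duplicate) were poured into Mueller-Hinton agar. Log-phase broth cultures were spot-inoculated at about 10^4 cfu per spot and incubated 35-36°C for 16-20 hours; the MIC was the lowest concentration inhibiting growth. Col is a high-level PBP2a producer; Col 8A is its isogenic PBP2a-lacking partner.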

In test [17] the test system is S. aureus Col8A(Meth^S)(lac^-). Kind of test: In vitro MIC, agar dilution. Type of test: cell-based. The note with it: S. aureus Col8A(Meth^S)(lac^-); for MIC: Staphylococcus aureus, read-out: minimum inhibitory concentration (MIC). The gist of the method:
as §2

Setting [18] is: Staphylococcus aureus, ATCC13709, Dose 0.3125 mg/kg.
[19] abbreviates: Staphylococcus aureus, ATCC13709, Dose 0.625 mg/kg.
Setting [20] is: Staphylococcus aureus, ATCC13709, Dose 1.25 mg/kg.
The mark [21] stands for this setting: Staphylococcus aureus, ATCC13709, Dose 2.5 mg/kg.
Where [22] appears, read: Staphylococcus aureus, ATCC13709.
The mark [23] stands for this setting: Staphylococcus aureus, ATCC13709, read-out: ED50.

Where a name gives a salt, the structure may show the parent alone. Read-outs that look alike come from different tables or passages of the source.

As usually defined, the ED50 is the dose that gives a 50% effect, or the effect in half of the subjects. In the case of `NC(=O)[C@@H](N)CSCc1cnccc1SC1=C(C(=O)O)N2C(=O)[C@@H](NC(=O)/C(=N\O)c3nc(N)sc3Cl)[C@H]2SC1` [Cmpd 59, (7R)-7-[(Z)-2-(2-amino-5-chlorothiazol-4-yl)-2-(hydroxyimino)acetamido]-3-(3-(2R-2-carboxamido-2-aminoethylthiomethyl)pyrid-4-ylthio)-3-cephem-4-carboxylate, trifluoroacetic acid salt], in [1] (setting [18]), the responders at 0.3125 mg/kg turned out to be 40%. The responders at 0.625 mg/kg in test [1] (setting [19]) amounted to 60%. The responders at 1.25 mg/kg in [1] (setting [20]) is 40%. Also, in test [1] (setting [21]), the responders at 2.5 mg/kg turned out to be 40%. Also, the responders at 5 mg/kg in [1] (setting [22]) is 100%. Further, the ED50 in test [1] (setting [23]) worked out at 0.81 mg/kg. Further, the MIC in test [2] is 8 µg/mL; in test [3] it was 0.5 µg/mL; in [4] it was 2 µg/mL; in test [5] it was 1 µg/mL; in test [6], over 32 µg/mL; in test [7] it was 4 µg/mL. The MIC stood at 2 µg/mL in test [8]; 0.5 µg/mL in test [9]; 4 µg/mL in test [10]; 0.5 µg/mL in [11]; 0.5 µg/mL in test [12]; 0.13 µg/mL in test [13]. For the same molecule, the MIC in [14] was determined as 2 µg/mL; in [15], 16 µg/mL; in test [16], 2 µg/mL; in [17] it was 0.25 µg/mL.
As to `Nc1nc(/C(=N/O)C(=O)N[C@@H]2C(=O)N3C(C(=O)O)=C(Sc4ccncc4SCCNC=O)CS[C@H]23)c(Cl)s1` [Cmpd 64, (7R)-7-[(Z)-2-(2-amino-5-chlorothiazol-4-yl)-2-(hydroxyimino)acetamido]-3-(3-(N-formylaminoethylthio)pyrid-4-ylthio)-3-cephem-4-carboxylate, trifluoroacetic acid salt], in [1] (setting [18]), the responders at 0.3125 mg/kg is 10%. The responders at 0.625 mg/kg in [1] (setting [19]) came out at 10%. Further, the responders at 1.25 mg/kg in test [1] (setting [20]) was 40%. The responders at 2.5 mg/kg in [1] (setting [21]) turned out to be 40%. The responders at 5 mg/kg in [1] (setting [22]) came out at 80%. In addition, in [1] (setting [23]), the ED50 came out at 2.27 mg/kg. Also, the MIC is 8 µg/mL in [2]; 0.5 µg/mL in test [3]; 2 µg/mL in test [4]; 1 µg/mL in [5]; over 32 µg/mL in test [6]; 4 µg/mL in test [7]. Besides, the MIC in test [8] came out at 2 µg/mL; in test [9], 0.25 µg/mL; in test [10], 4 µg/mL; in test [11], 0.25 µg/mL; in test [12], 0.5 µg/mL; in [13] it was 0.25 µg/mL. In addition, the MIC in test [14] is 4 µg/mL; in test [15] it was 16 µg/mL; in test [16], 2 µg/mL; in test [17], 0.25 µg/mL.
As for “(7R)-7-[(Z)-2-(aminothiazol-4-yl)-2-(hydroxyimino)acetamido]-3-[(methylaminoethylaminoethylthiomethyl)-1,2,3-thiadiazol-5-ylthio]-3-cephem-4-carboxylate, trifluoroacetic acid salt [Cmpd 11]”, the Survivors in [1] (Dose 0.156 mg/kg) is listed as 1/10; in test [1] (Dose 0.3125 mg/kg), 1/10; in test [1] (Dose 0.625 mg/kg), 3/10; in test [1] (Dose 1.25 mg/kg) it was 5/10; in test [1] (Dose 2.5 mg/kg), 6/10. Moreover, the ED50 in test [1] was determined as 0.96 mg/kg. Moreover, the “minimum inhibitory concentration (MIC)” value is 8 µg/mL in test [2]; 1 µg/mL in test [3]; 4 µg/mL in test [4]; 2 µg/mL in test [5]; over 32 µg/mL in test [6]; 4 µg/mL in test [7]. The “minimum inhibitory concentration (MIC)” value in test [8] was found to be 4 µg/mL; in test [9], 0.5 µg/mL; in test [10], 8 µg/mL; in test [11] it was 0.25 µg/mL; in test [12] it was 0.5 µg/mL; in test [13] (S. aureus ATCC 13709(Meth^S)) it was 0.5 µg/mL. The “minimum inhibitory concentration (MIC)” value is 8 µg/mL in [14], over 32 µg/mL in test [15], 4 µg/mL in test [16] and 1 µg/mL in test [17].

Values taken from US6087355A, “Cephalosporin antibiotics” (Microcide Pharmaceuticals, Inc., priority 1996, dated 2000).
